Consider one molecule from ChEMBL document CHEMBL1155303, “Multiple strategies for the preparation of a sulfur-35 labeled NPC1L1 radioligand” (Bioorg Med Chem Lett, 2009).

In assay [1] the target is T1, NPC1-like intracellular cholesterol transporter 1 (Homo sapiens, UniProt Q9UHC9).
T1 sequence (Q9UHC9 whole entry): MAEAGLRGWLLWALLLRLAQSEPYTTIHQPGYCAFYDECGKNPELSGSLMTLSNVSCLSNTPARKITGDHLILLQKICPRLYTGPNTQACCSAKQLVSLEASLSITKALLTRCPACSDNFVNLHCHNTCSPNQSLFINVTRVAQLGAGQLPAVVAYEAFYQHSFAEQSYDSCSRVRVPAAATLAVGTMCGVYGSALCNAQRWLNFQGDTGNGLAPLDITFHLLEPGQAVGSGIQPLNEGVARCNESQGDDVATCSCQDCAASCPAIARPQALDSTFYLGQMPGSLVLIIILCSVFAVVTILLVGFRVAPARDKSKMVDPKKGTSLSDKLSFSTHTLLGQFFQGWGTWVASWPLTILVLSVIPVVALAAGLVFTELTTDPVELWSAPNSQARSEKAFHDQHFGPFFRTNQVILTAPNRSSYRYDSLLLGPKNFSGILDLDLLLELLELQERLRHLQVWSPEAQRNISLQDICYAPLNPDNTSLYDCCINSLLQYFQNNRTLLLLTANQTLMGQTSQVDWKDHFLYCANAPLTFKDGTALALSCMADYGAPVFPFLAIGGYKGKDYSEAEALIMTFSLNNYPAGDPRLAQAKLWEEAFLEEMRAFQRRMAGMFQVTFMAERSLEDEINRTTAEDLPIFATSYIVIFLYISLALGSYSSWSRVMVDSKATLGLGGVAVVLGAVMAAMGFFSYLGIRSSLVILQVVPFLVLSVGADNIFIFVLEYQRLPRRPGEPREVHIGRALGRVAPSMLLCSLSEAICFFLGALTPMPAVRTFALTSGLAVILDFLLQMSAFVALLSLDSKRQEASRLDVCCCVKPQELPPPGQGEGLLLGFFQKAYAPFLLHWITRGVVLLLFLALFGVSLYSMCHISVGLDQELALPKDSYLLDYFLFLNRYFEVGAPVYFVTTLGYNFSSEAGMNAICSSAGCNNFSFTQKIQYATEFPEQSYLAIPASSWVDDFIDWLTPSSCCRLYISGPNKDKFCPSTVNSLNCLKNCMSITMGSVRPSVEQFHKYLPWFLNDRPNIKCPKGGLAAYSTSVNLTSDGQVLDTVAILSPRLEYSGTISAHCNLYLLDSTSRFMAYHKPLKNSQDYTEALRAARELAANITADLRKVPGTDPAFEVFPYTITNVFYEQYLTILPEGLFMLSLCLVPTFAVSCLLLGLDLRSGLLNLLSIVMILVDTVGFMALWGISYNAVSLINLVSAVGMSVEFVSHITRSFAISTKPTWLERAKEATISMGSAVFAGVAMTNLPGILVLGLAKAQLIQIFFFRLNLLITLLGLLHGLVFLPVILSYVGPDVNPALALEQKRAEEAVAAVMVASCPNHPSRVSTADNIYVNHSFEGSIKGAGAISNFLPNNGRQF
Description: Displacement of [35S](2S,3S,4S,5R,6S)-6-(4-((2S,3R)-3-((S)-3-(4-fluorophenyl)-3-hydroxypropyl)-1-(4-(3-(methylsulfonamido)prop-1-ynyl)phenyl)-4-oxoazetidin-2-yl)phenoxy)-3,4,5-trihydroxytetrahydro-2H-pyran-2-carboxylic acid from recombinant human NPC1L1 expressed in HEK cells by single tube filtration assay. It is filed as cell-based, HEK293. (Displacement assays read how much labelled ligand stays bound in the presence of the test substance.)

In assay [2] the target is NPC1-like intracellular cholesterol transporter 1 (Mus musculus, UniProt Q6T3U4). In words: Displacement of [35S](2S,3S,4S,5R,6S)-6-(4-((2S,3R)-3-((S)-3-(4-fluorophenyl)-3-hydroxypropyl)-1-(4-(3-(methylsulfonamido)prop-1-ynyl)phenyl)-4-oxoazetidin-2-yl)phenoxy)-3,4,5-trihydroxytetrahydro-2H-pyran-2-carboxylic acid from recombinant mouse NPC1L1 expressed in HEK cells by single tube filtration assay. It counts as cell-based, HEK293.
Sequence of NPC1-like intracellular cholesterol transporter 1 (Mus musculus, UniProt Q6T3U4) (Q6T3U4 21-1333 limits assumed): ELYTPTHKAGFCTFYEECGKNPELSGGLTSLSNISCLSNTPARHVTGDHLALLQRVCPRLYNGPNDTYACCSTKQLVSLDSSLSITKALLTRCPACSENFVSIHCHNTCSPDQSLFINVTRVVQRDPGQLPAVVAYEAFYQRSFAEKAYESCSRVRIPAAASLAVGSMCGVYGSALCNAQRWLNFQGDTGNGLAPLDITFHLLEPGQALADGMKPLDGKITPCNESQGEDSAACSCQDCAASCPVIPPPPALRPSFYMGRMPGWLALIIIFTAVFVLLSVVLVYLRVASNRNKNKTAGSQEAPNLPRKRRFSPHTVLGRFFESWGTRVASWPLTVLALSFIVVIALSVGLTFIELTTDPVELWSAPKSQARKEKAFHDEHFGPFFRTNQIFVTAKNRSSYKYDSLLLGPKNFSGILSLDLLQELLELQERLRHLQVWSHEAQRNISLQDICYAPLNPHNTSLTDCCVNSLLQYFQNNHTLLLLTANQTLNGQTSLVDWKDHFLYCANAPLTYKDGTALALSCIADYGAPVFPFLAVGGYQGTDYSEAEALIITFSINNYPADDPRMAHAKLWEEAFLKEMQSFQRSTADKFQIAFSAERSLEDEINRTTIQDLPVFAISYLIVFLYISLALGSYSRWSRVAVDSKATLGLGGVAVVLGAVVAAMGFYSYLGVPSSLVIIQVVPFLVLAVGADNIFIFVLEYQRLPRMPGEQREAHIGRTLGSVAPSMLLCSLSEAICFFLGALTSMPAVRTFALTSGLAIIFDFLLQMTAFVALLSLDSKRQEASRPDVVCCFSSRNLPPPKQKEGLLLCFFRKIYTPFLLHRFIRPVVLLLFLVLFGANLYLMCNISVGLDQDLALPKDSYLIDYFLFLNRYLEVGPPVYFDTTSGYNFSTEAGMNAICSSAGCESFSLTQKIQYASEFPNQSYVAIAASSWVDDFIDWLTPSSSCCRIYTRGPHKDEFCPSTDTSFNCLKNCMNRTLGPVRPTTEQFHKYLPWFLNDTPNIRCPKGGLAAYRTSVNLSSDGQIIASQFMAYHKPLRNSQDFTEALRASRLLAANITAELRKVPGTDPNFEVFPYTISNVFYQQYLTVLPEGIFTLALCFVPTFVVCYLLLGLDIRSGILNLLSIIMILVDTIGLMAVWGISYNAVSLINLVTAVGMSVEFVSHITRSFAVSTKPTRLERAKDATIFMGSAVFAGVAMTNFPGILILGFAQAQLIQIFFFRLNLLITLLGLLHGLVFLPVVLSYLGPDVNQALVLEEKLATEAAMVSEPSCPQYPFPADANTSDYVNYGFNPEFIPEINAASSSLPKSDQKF

The target of assay [3] is T2, NPC1-like intracellular cholesterol transporter 1 (Rattus norvegicus, UniProt Q6T3U3). In words: Displacement of [35S](2S,3S,4S,5R,6S)-6-(4-((2S,3R)-3-((S)-3-(4-fluorophenyl)-3-hydroxypropyl)-1-(4-(3-(methylsulfonamido)prop-1-ynyl)phenyl)-4-oxoazetidin-2-yl)phenoxy)-3,4,5-trihydroxytetrahydro-2H-pyran-2-carboxylic acid from rat intestinal brush border membrane NPC1L1 by single tube filtration assay.
T2 sequence (Q6T3U3 21-1331 limits assumed): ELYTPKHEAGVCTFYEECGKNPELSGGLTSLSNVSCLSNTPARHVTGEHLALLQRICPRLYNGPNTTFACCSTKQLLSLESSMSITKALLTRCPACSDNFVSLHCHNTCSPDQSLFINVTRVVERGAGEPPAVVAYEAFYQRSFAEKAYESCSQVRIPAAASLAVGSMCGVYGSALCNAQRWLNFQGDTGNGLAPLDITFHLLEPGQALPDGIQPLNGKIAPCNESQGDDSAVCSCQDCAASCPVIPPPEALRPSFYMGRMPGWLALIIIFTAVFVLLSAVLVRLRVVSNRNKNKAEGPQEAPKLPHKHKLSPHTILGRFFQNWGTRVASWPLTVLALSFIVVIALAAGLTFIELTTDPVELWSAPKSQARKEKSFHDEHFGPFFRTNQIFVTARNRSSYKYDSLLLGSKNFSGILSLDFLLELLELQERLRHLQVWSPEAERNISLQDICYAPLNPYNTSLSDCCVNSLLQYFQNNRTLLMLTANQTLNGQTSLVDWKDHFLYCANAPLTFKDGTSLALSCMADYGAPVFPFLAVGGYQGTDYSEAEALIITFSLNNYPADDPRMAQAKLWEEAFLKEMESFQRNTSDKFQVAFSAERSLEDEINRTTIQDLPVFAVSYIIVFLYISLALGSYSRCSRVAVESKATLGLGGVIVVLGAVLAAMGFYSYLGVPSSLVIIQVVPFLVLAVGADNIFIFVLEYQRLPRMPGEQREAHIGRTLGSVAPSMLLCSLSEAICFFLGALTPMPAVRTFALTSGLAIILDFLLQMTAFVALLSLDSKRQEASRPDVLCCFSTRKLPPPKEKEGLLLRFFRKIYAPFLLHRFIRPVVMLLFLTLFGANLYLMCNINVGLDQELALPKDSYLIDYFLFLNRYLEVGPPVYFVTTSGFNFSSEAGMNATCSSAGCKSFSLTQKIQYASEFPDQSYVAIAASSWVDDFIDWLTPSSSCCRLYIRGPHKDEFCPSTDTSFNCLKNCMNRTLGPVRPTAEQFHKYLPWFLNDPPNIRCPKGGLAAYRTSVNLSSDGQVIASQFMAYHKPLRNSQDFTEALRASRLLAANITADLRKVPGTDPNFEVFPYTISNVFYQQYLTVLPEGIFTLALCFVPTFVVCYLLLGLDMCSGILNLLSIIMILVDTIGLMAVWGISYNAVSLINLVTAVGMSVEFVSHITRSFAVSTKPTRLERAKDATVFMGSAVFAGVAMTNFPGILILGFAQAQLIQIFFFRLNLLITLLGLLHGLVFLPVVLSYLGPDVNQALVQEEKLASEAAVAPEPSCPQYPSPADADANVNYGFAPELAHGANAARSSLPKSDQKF

For assay [4], the target named is T2, NPC1-like intracellular cholesterol transporter 1. Description: Displacement of [35S](2S,3S,4S,5R,6S)-6-(4-((2S,3R)-3-((S)-3-(4-fluorophenyl)-3-hydroxypropyl)-1-(4-(3-(methylsulfonamido)prop-1-ynyl)phenyl)-4-oxoazetidin-2-yl)phenoxy)-3,4,5-trihydroxytetrahydro-2H-pyran-2-carboxylic acid from recombinant rat NPC1L1 expressed in HEK cells by single tube filtration assay. It is filed as cell-based, HEK293.

In assay [5] the target is T1, NPC1-like intracellular cholesterol transporter 1. In words: Displacement of [35S](2S,3S,4S,5R,6S)-6-(4-((2S,3R)-3-((S)-3-(4-fluorophenyl)-3-hydroxypropyl)-1-(4-(3-(methylsulfonamido)prop-1-ynyl)phenyl)-4-oxoazetidin-2-yl)phenoxy)-3,4,5-trihydroxytetrahydro-2H-pyran-2-carboxylic acid from human intestinal brush border membrane NPC1L1 by single tube filtration assay.

One may read the IC50 as the concentration that inhibits the measured activity by half. Regarding `C[35S](=O)(=O)NCC#Cc1ccc(N2C(=O)[C@H](CC[C@H](O)c3ccc(F)cc3)[C@H]2c2ccc(O[C@@H]3O[C@H](C(=O)O)[C@@H](O)[C@H](O)[C@H]3O)cc2)cc1`, the IC50 is 4 nM in assay [1]; 44 nM in assay [2]; 4 nM in assay [3]; 4 nM in assay [4]; 4 nM in assay [5].
